Measurements: patent US20050101530A1, “Cellular virus receptors and methods of use” (Topigen Pharmaceutique, Inc., priority 2001, published 2005)

Tests used:
[1] = target: human chemokine receptor CCR3 (human) (UniProt P51677); test: cell-based or functional assay
[2] = target: T1, RSV-G protein and CCR3 receptor (Homo sapiens, UniProt P51677); test: Anti-CCR3 immunoprecipitation and anti-RSV-G Western blot of RSV-infected Hep2 cells; format: cell-based; details: Hep2 cells infected by RSV in the presence of 2 μg/ml of Eotaxin; FIG. 1 lane 3
T1 construct: physical contact between the CCR3 receptor and the RSV-G protein in Hep-2 cells; endogenous in cells; host or cells: Hep-2 epithelial cells (ATCC) infected with RSV A2 (ATCC)
T1 sequence (P51677 1-355): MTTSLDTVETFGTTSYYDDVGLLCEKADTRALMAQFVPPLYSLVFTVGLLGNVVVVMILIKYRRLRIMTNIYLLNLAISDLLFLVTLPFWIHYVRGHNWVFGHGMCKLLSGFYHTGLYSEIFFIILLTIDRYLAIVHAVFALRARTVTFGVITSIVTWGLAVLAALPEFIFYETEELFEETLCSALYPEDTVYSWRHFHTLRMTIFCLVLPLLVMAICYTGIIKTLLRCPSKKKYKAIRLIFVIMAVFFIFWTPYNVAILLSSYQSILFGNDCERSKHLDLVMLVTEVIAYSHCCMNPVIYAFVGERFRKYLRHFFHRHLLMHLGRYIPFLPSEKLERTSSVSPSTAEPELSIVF
Description: (§1) A549, Hep2, or GHOST cells were infected by RSV A2 strain at different multiplicity of infection (MOI). The results presented in this work were performed at a MOI of 1:0.1. The MOI 1:0.1 is the cut off of permissive and restrictive infection. The cells expressing the chemokine receptor CCR3 (Ghost-CCR3+, Hep2 and A549) were found permissive at a MOI 1:0.1 and the chemokine receptor CCR3 is considered as the high affinity coreceptor for RSV infection. Infection experiments undertaken with GHOST cells expressing only one of the following chemokine receptors the CCR1, CCR2b, CCR4, CCR5, CCR8 or CXCR4, were performed at a MOI of 1:2. These GHOST cells (CCR1, CCR-2b, CCR-4, CCR-5, CCR-8 and CXCR4), were not infected at a MOls of 1:0.1 and 1:1. The chemokine receptors CCR1, CCR2, CCR4, CCR5, CCR8 were considered subsequently as low affinity coreceptors in regard to RSV infection. […] These cells were not infected by RSV at a MOI 1:5 and lesser (1:4, 1:3, 1:2, 1:1 and 1:0.1).
Cells were infected by RSV for 2 hr incubation in the presence or the absence of 2 μg/ml of Eotaxin, or of PBS solution and cultured for 3 days. […]
Hep2 cells are known for being a permissive target cell for RSV infection and these cells express several chemokine receptors. […] However, keeping in mind that all cell extracts were normalized to the same quantity of proteins before being loaded into SDS-PAGE. […]

[3] = tested on: RSV A2; test: RSV plaque formation (infectivity) inhibition test in Hep-2 cell cultures; format: cell-based, respiratory syncytial virus (RSV) A2 strain; details: Hep-2 cells
Description: The A2 strain of RSV was purchased from ATCC. The RSV was inoculated into a sub-confluent Hep-2 cell monolayer. […] The contents of the flask was resuspended in 1 ml aliquots, quick-frozen with alcohol/dry ice, and stored at −80° C. The virus titer of RSV was assessed by quantitative plaque forming assay and maintained titers in the range of 10^6 to 10^8pfu/ml for more than 6 months at −70° C.
Hep2 cells are known for being a permissive target cell for RSV infection and these cells express several chemokine receptors. Serial rounds of infections were performed with Hep-2 cells at different MOIs, ranging from 1:5 to 1:0.1. Hep-2 cells were systematically infected at these ranges of MOI. Subsequent experimental infection of Hep-2 cells with RSV were realized at a MOI 1:0.1. We investigated the role of the chemokine receptor CCR3 in supporting RSV infection. Immunoprecipitation technique followed by analysis of the immunoprecipitated complexes by SDS-PAGE were performed in order to gain insight into the physical contact between the RSV-G protein and the CCR3 receptor. Immunoprecipitation of the immune complexes will allow to assess, using SDS-PAGE and a specific antibody for the RSV-G protein, whether or not the contact of the virus glycoprotein with the cell receptor occurred. […] We noticed here that although the monoclonal antibody to RSV-G protein was diluted to 1:5000, it still cross reacted with a determinant of 43-45 kDa in all non infected or control cell types used in this work (see FIG. 1 lane 2). However, keeping in mind that all cell extracts were normalized to the same quantity of proteins before being loaded into SDS-PAGE. Therefore, the high intensity of the band, recognized by anti-RSV-G, and corresponding to the RSV-G protein precursor allowed us to differentiate between real infection and the background due to cross reactivity. We assessed if the CCR3 receptor was involved in virus infectivity of epithelial cells by performing RSV infectivity inhibition tests as described above. […]

[4] = tested on: RSV; test: RSV infection of CCR3 transfected GHOST cells, immunostaining; format: cell-based, respiratory syncytial virus (RSV) A2 strain; details: Eotaxin 1 μg/ml, anti-RSV F-protein immunostaining, FIG. 3B
Description: as §1
We have also assessed whether CCR3 transfected GHOST cells support RSV infection and produce infectious virus. We performed this by using the same methods as described in FIG. 3. […]
After fixing the cells in 4% paraformaldehyde in phosphate buffered saline (PBS), the presence of virus was detected by immunostaining. […]

Eotaxin (from UniProt P51671 24-97) (ligand)
percent inhibition of virus plaques formation (RSV A2 on Hep-2 cells) [1]: 80%

Rat anti-human CCR3 (clone 61828.111) (antibody)
decrease in RSV infection of CCR3+ GHOST cells, immunostaining [1]: 80%

Eotaxin
detection of RSV-G protein by RSV-G mAb in anti-CCR3 immunoprecipitated extracts [2]: failed to recognize the RSV-G protein
percent inhibition of virus plaques formation ([3]; Eotaxin greater or equal to 0.5 μg/ml, compared to PBS-treated cultures, three days post infection): 80%
RSV plaques as compared with PBS controls ([3]; each concentration of Eotaxin tested (0.01 to 1.0 μg/ml), p<0.05, Student's t-test): statistically fewer RSV plaques
timing of inhibition of RSV infection (FIG. 2) ([3]; eotaxin added to culture medium, during virus adsorption): inhibited RSV infection most effectively early in infection
RSV infection of GHOST/CCR3 cells by immunostaining [4]: inhibits infection by RSV
RSV infection of GHOST/CCR3 cells by immunostaining ([4]; listed as eotaxin): inhibits cellular infection by RSV
